# According to patent publication US9868716B2, “Method for preventing and/or treating a subject suffering from asthma” (Hong Kong Baptist University, priority 2014, dated 2018):
# Tests used:
# [1] = molecular target: T1, Syk (Mus musculus, UniProt P48025); assay: Immunoprecipitation of Syk phosphorylation in IgE/DNP-HSA-stimulated murine mast cells; assay type: cell-based, mice; conditions: murine BMMC, N7 1 hour, then antigen 5 minutes; FIG. 1a
# Procedure: (§1) Bone marrow-derived mast cells (BMMC) of mice were separated from BALB/c murine marrow and were cultured in RPMI1640 liquid containing IL-3, 10% of calf serum, 100 U/ml of penicillin and 100 μg/ml of streptomycin for 6 weeks. Two markers c-kit and FceRI on cell membranes were detected by using flow cytometric analysis. When double-positive cells detected, having both markers, have exceeded 95%, the cultured cells can be used for the experiment.
# (§2) Mast cells were pre-treated with IgE overnight, and were washed by PBS thrice. After re-suspended with medium, they were treated with different concentrations of Nujiangexanthone A for 1 hour. Dinitrophenyl human serum albumin (DNP-HSA) was used to treat the cells for 5 minutes. A/G agarose was added into the cell lysates and the mixtures were rotated at a rotator for 1 hour. Antibodies of Syk, Fyn and Lyn were added, and the mixtures were rotated overnight. On the following day, PBS was used to wash the complex of magnetic beads, antibody and protein for 5 times. A Western Blot loading dye was added into the complex and the mixtures were boiled for 5 minutes. […]
# (§3) The results of FIG. 1a are obtained by pretreating the antibody-treated mast cells with N7 and Src family inhibitor PP2 for 1 hour and then treating the cells with antigens for 5 minutes. […] The downstream signal pathways of Syk including MAPKs, NF-kB and AP-1 were then analyzed by Western Blot.
# [2] = system: Fyn; assay: Immunoprecipitation of Fyn phosphorylation in IgE/DNP-HSA-stimulated murine mast cells; assay type: cell-based, mice; conditions: murine BMMC, N7 1 hour, then antigen 5 minutes; FIG. 1a
# Procedure: as §1, §2, §3
# [3] = system: Lyn; assay: Immunoprecipitation of Lyn phosphorylation in IgE/DNP-HSA-stimulated murine mast cells; assay type: cell-based, mice; conditions: murine BMMC, N7 1 hour, then antigen 5 minutes; FIG. 1a
# Procedure: as §1, §2, §3
# [4] = system: downstream signal pathways of Syk including MAPKs, NF-kB and AP-1; assay: Western Blot of downstream signaling pathways of Syk in murine mast cells; assay type: cell-based, mice; conditions: murine BMMC, FIG. 1b
# Procedure: as §1
# (§4) Cells were treated with Nujiangexanthone A (N7) in corresponding concentrations for 5, 15 and 30 minutes. The samples were collected and lysed. The samples were then separated by 8% gel in sodium dodecyl sulfate polyacrylaminde gel electrophoresis (SDS-PAGE) and transferred to polyvinylidene fluoride (PVDF) membrane. The following antibodies were used to analyze the samples: ERK, JNK, p38, IKK, IkBa, NF-kB and so forth. If the compound is found to interfere with the expression and phosphorylation of the target proteins, a corresponding specific inhibitor may be used to conduct a comparative analysis.
# The results of FIG. 1a are obtained by pretreating the antibody-treated mast cells with N7 and Src family inhibitor PP2 for 1 hour and then treating the cells with antigens for 5 minutes. Phosphorylation of Syk, Fyn and Lyn were then examined by immunoprecipitation. The results of FIG. 1b are obtained by pretreating the antibody-treated mast cells with N7 and Src family inhibitor PP2 for one hour and then treating with antigens for 15 minutes. The downstream signal pathways of Syk including MAPKs, NF-kB and AP-1 were then analyzed by Western Blot.
# [5] = system: murine spleen cells; assay: ELISA of cytokines in spleen cells of asthma mice; assay type: in vivo; conditions: spleen cells treated with OVA for 3 days, ELISA (IL-4, IL-5, IL-13, IFNγ); FIG. 2a
# Procedure: (§5) Lymph nodes and spleen of mice were collected. The collected tissues were respectively grinded, counted and cultivated. The cultured tissues were stimulated with PMA and ionomycin for 48 hours. The supernatant and the cells were then collected for analysis. The supernatant was used for examining various cytokines, and the cells were used for measuring expressions of various T cell specific proteins by Western blot.
# (§6) To obtain the data in FIG. 2a, murine spleen cells were grinded and treated with OVA for 3 days, and then the supernatants of the cell mixtures were collected for ELISA analysis. […] As shown in FIG. 2b and FIG. 2c, the signal transduction proteins in spleen cells were detected. According to the experimental results, N7 inhibits the phosphorylation of Syk in spleen cells of mice having asthma.
# [6] = system: Zap70; assay: Western Blot of phosphorylated Zap70 in spleen cells of asthma mice; assay type: in vivo; conditions: FIG. 2b, 2c
# Procedure: as §5, §6
# [7] = system: Stat6; assay: Western Blot of phosphorylated Stat6 in spleen cells of asthma mice; assay type: in vivo; conditions: FIG. 2b, 2c
# Procedure: as §5, §6
# [8] = system: GATA3; assay: Western Blot of GATA3 in spleen cells of asthma mice; assay type: in vivo; conditions: FIG. 2b, 2c
# Procedure: as §5, §6
# [9] = system: T-bet; assay: Western Blot of T-bet in spleen cells of asthma mice; assay type: in vivo; conditions: FIG. 2b, 2c
# Procedure: as §5, §6
# [10] = system: Balb/c mice, asthma animal model; assay: OVA asthma animal model; assay type: in vivo
# Procedure: (§7) Balb/c mice of SPF grade were selected for establishing an asthma animal model. With reference to FIG. 3a, ovalalbumin (OVA) dissolved in PBS with aluminum hydroxide gel was intraperitoneally injected to the mice to trigger systemic allergic responses, i.e. OVA sensitization. Then, atomized OVA was given to stimulate or challenge respiratory tracts of the mice. As such, a control group was prepared. By using the similar approach, treatment groups with an administration of N7 in different concentrations as well as a positive control group with an administration of dexamethasone were established. Also, a further control group of PBS was established by using same volume of PBS to replace OVA and using the PBS to replace the atomized OVA.
# (§8) Symptoms of the mice were recorded during the test. Peripheral blood of the mice was collected before the end of the test so as to measure the release of IgE. Airway lavages were collected and the supernatants thereof were tested to measure the release of various cytokines. Cells were counted after being fixed and stained. The effect of Nujiangexanthone A on different types of immune cells was studied.
# [11] = molecular target: T1, Syk; assay: Immunohistochemistry of p-Syk in lung tissues of asthma model mice; assay type: in vivo; conditions: FIG. 3d
# Procedure: as §7, §8
# [12] = system: PBMC of asthma patients; assay: qPCR of cytokines in PBMC of asthma patients; assay type: cell-based, human; conditions: mRNA by qPCR, FIG. 4
# Procedure: Blood samples were collected from normal (healthy) people and people with asthma Peripheral blood mononuclear cells (PBMC) were isolated. By using Ficoll-density method, the effect of Nujiangexanthone A on the release of various cytokines in the isolated PBMCs was measured by qPCR.
# [13] = system: Syk; assay: Western blot of Syk phosphorylation in PMA/ionomycin-treated Jurkat cells; assay type: cell-based, Human; conditions: N7 1 hour, PMA and ionomycin 15 minutes, FIG. 5a
# Procedure: (§9) Jurkat T cells were cultured in RPMI1640 containing 10% fetal calf serum, 100 U/ml of penicillin and 100 μg/ml of streptomycin. The cells were passed once every two days with fresh medium. After pretreating the cells with a medicament, PMA and ionomycin were used to treat the cells at different time points. After the treatments, the cells were collected for biomarker measurements.
# as §4, with “Jurkat T cells culture: in a safe range of concentrations, cells” for “Cells”, “A” for “A (N7)”, “SDS-PAGE” for “sodium dodecyl sulfate polyacrylaminde gel electrophoresis (SDS-PAGE)”, “PVDF” for “polyvinylidene fluoride (PVDF)”
# (§10) In one test, Jurkat cells were pretreated with N7 and Src family inhibitor PP2 for 1 hour and then co-treated with PMA and ionomycin for 15 minutes. Then, a plurality of proteins of T cells signaling transduction pathways were measured by Western blot.
# [14] = system: Fyn; assay: Western blot of Fyn phosphorylation in PMA/ionomycin-treated Jurkat cells; assay type: cell-based, Human; conditions: N7 1 hour, PMA and ionomycin 15 minutes, FIG. 5a
# Procedure: as §9
# as §4, with “Jurkat T cells culture: in a safe range of concentrations, cells” for “Cells”, “A” for “A (N7)”, “SDS-PAGE” for “sodium dodecyl sulfate polyacrylaminde gel electrophoresis (SDS-PAGE)”, “PVDF” for “polyvinylidene fluoride (PVDF)”
# as §10
# [15] = system: Lck; assay: Western blot of Lck phosphorylation in PMA/ionomycin-treated Jurkat cells; assay type: cell-based, Human; conditions: N7 1 hour, PMA and ionomycin 15 minutes, FIG. 5a
# Procedure: as §9
# as §4, with “Jurkat T cells culture: in a safe range of concentrations, cells” for “Cells”, “A” for “A (N7)”, “SDS-PAGE” for “sodium dodecyl sulfate polyacrylaminde gel electrophoresis (SDS-PAGE)”, “PVDF” for “polyvinylidene fluoride (PVDF)”
# as §10
# [16] = system: Murine BMMCs; assay: Activation of murine mast cells (cytokines, degranulation, Ca2+, LTC4); assay type: cell-based, BALB/c mice; conditions: BMMC
# Procedure: Murine BMMCs were isolated from BALB/c murine marrow and were cultured in a RPMI1640 medium containing IL-3, 10% of calf serum, 100 U/ml of penicillin and 100 μg/ml of streptomycin for 6 weeks. Two markers c-kit and FceRI on cell membranes were detected by using flow cytometric analysis. When double-positive cells detected, having both markers, have exceeded 95%, the cultured cells can be used for the experiment.
# (§11) IgE mast cells were pretreated with IgE overnight and washed by PBS thrice. After re-suspended with medium, they were treated with different concentrations of Nujiangexanthone A for 1 hour. DNP-HAS or antigen was then used to treat the cells for 6 hours. The supernatants were collected for measurement. The amounts of TNF-α and IL-6 were measured by an ELISA kit.
# as §11, with “15 minutes.” for “6 hours.”, “LTC4” for “TNF-α”, “Ca^2+ as well as the degranulation response” for “IL-6”
# The amount of b-Hex was measured to evaluate the degranulation response.
# [17] = system: lung tissue; assay: Cytokines in lung tissue of asthma animal models; assay type: in vivo; conditions: asthma model mice; FIG. 7
# Procedure: as §7
# Some portions of lung tissue of the animal models were collected to evaluate lung inflammatory status. A portion of the collected lung tissue was isolated to extract RNA, and another portion of the lung tissue was grinded and digested for cytokines measurements.
# [18] = molecular target: T1, Syk; assay: Western Blot of phosphorylated Syk in spleen cells of asthma mice; assay type: in vivo; design: from tissue; host or cells: mouse spleen cells; conditions: spleen cells of mice having asthma; FIG. 2b, 2c
# Procedure: as §5, §6
# [19] = N7 1 hour, DNP-HAS 15 minutes, dose-dependent, FIG. 6
# [20] = N7 1 hour, DNP-HAS 6 hours, ELISA, dose-dependent, FIG. 6
# T1 sequence (P48025 whole entry): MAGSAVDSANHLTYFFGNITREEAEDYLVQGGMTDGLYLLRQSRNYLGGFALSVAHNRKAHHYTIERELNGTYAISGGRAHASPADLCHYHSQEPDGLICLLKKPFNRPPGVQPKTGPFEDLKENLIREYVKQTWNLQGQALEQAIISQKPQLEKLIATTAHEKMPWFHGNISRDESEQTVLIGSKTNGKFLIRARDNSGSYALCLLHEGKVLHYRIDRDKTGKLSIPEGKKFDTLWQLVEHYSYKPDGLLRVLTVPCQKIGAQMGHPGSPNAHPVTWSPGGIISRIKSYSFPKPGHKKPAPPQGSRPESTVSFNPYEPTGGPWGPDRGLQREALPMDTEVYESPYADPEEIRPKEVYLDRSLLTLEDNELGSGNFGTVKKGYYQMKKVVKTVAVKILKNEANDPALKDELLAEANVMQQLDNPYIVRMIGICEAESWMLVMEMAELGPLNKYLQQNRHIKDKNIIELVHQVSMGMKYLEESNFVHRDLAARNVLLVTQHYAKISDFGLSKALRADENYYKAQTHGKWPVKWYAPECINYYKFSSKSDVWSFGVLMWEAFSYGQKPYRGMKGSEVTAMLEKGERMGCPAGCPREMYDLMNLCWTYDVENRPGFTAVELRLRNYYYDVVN
compound,measurement,setting,value
COc1c(O)c(O)c2c(=O)c3c(CC=C(C)C)c(CC=C(C)C)c(O)c(O)c3oc2c1CC=C(C)C [Nujiangexanthone A],phosphorylation of Syk,[1],selectively inhibits
same,phosphorylation of Fyn,[2],does not affect
same,phosphorylation of Lyn,[3],does not affect
same,MAPK signaling pathways,"[4]; N7 1 hour, antigen 15 minutes",inhibits
same,nuclear translocation of p65,[4]; cytoplasm and nucleus separated,inhibits
same,production of transcription factors AP-1 (c-Jun+c-fos),[4],is inhibited
same,production of cytokines in spleen tissues,[5],inhibits
same,expression of phosphorylated Zap70,[6],inhibits
same,expression of phosphorylated Stat6,[7],inhibits
same,expression of GATA3,[8],inhibits
same,expression of T-bet,[9],without altering
same,production of IgE in serum,"[10]; OVA asthma mice, FIG. 3b",effectively inhibits
same,level of phosphorylated tyrosine in lung tissues,"[10]; immunohistochemistry, FIG. 3d",inhibits
same,infiltrates in peribronchial inflammatory cell,"[10]; lung tissues, H&E and PAS, FIG. 3c",decreases
same,level of phosphorylated Syk in lung tissues,[11],inhibits
same,expression of IFN′,[12],does not inhibit
same,production of IL-5,[12],inhibits
same,production of IL-13,[12],inhibits
same,production of IL-17,[12],inhibits
same,phosphorylation of Syk,[13],selectively inhibits
same,phosphorylation of Fyn,[14],does not affect
same,phosphorylation of Lck,[15],does not affect
same,concentration of calcium,[16]; [19],lower
same,degranulation of mast cells (b-Hex),[16]; [19],inhibit
same,production of leukotriene LTC4,[16]; [19],inhibit
same,production of IL-6,[16]; [20],inhibit
same,production of TNF-α,[16]; [20],inhibit
same,cytotoxicity,[16]; range of concentration used in the activation tests,no cytotoxicity
same,production of IFNγ in lung tissue,[17],does not affect
same,production of IL-4 in lung tissue,[17],inhibits
same,production of IL-5 in lung tissue,[17],inhibits
same,production of IL-13 in lung tissue,[17],inhibits
same,production of LTC4 in lung tissue,[17],inhibits
same,production of PGD2 in lung tissue,[17],inhibits
same,production of eotaxin in lung tissue,[17],inhibits
same,expression of phosphorylated Syk,[18],inhibits
